# According to patent US20040259096A1, “Receptor capture assay” (priority 2001, published 2004):
# Biological target: T1, AhR (Cavia porcellus, UniProt Q6J287)
# T1 sequence (Q6J287 1-846): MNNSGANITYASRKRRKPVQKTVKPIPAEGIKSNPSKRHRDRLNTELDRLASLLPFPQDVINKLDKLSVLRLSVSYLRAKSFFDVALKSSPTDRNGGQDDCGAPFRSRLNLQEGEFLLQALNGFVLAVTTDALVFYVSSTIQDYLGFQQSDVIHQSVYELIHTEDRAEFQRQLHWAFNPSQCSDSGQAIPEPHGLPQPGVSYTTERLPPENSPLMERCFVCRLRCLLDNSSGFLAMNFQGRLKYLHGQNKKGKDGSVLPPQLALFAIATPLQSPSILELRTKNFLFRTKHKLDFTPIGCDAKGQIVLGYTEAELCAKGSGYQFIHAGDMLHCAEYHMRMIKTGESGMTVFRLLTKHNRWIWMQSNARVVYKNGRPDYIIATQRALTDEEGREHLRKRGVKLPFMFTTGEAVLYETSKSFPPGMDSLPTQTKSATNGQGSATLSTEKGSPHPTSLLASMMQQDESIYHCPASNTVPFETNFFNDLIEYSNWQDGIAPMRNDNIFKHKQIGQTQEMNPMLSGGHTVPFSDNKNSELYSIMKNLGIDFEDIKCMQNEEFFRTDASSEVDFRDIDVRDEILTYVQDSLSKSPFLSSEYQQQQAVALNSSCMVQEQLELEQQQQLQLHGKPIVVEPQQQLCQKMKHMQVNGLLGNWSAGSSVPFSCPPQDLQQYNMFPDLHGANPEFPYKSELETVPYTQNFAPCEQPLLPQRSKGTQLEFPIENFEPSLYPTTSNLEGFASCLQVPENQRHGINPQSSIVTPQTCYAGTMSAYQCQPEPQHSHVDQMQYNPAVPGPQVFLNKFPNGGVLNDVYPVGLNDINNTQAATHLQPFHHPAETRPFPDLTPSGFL
# Experiment: Receptor capture assay, real-time PCR, rodent cytosol as source of AhR
# Assay type: biochemical
# Parameters: EC50 of dose-response curve; other: TCDD and BNF curves performed simultaneously; slope of dose-response curve
# Details: TCDD and BNF curves performed simultaneously
# Protocol: A set of calibrators consisting of 5000, 2500, 1250, […], 313, 156, and 78 parts per trillion (ppt or pg/ml) 2,3,7,8-tetrachlorodibenzo-p-dioxin (TCDD) was prepared in methanol. In addition to TCDD a set of calibrators for AhR agonist, beta-naphthoflavone (BNF) was prepared and analyzed in the assay. Separately, 25 ul of 1:50,000 dilution of 10 uM stock nucleic acid-tracer was added per 1 ml of rodent cytosol, which was the source of AhR, and was aliquoted into glass tubes. The standards were diluted 1:20 into 50-100 ul of rodent cytosol, and incubated for 1-2 hr at room temperature to 37° C. Following incubation, 40 to 100 ul of the reaction was transferred to each well of the antibody-coated Capture Strip and incubated on a shaking platform for 30 min to 1 hr at room temperature. The Capture Strips were washed 5 times with Wash Buffer B, and aspirated; optionally soaking wells for 30 sec-5 min with wash buffer during each cycle. Taqman® Universal PCR Master Mix, primers, and Taqman® probe (Applied Biosystems, Calif.) were added, and adhesive cover applied. PCR was performed and analyzed using an ABI PRISM® 7700, using default settings: 50° C., 2 min, 95° C. 10 min, and 40 cycles of [95° C., 15 sec, 60° C., 60 sec]. A threshold cycle (Ct) was determined for each reaction The Ct represents the PCR cycle at which an increase in reporter fluorescence above baseline signal can first be detected.
SMILES,slope of dose-response curve,EC50 (read-out: EC50 of dose-response curve) [nM]
"O=c1cc(-c2ccccc2)oc2ccc3ccccc3c12 [BNF, beta-naphthoflavone]",−0.7637,0.04
"Clc1cc2c(cc1Cl)Oc1cc(Cl)c(Cl)cc1O2 [TCDD, 2,3,7,8-tetrachlorodibenzo-p-dioxin]",−1.195,
